These are literature values, as cited in paper PMC4906314, “Direct interaction of beta-amyloid with Na,K-ATPase as a putative regulator of the enzyme function” (Scientific Reports, 2016).

The target in the series is Na,K-ATPase. The conditions noted are these: at the same conditions; read-out: Kd for complexes of Na,K-ATPase with CTS.

`C[C@]12CC[C@H](O)C[C@@]1(O)CC[C@@H]1[C@@H]2CC[C@]2(C)[C@@H](c3ccc(=O)oc3)C[C@H]3O[C@]132` [marinobufagenin]: the Kd was 1.5 µM.
